# Reference: US20240294572A1, “Antimicrobial Peptides” (priority 2021, published 2024)
# Non-standard residues stand in square brackets, D forms with d. Residues, ends and D or L forms follow the SMILES beside them. *: point of attachment. Decanoyl = CCCCCCCCCC(=O)*
# What was measured:
# [1] = system: clinical strains of S. aureus, including USA200, USA400, Newman, and Mu50; format: cell-based
# Method in brief: (§1)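 Broth microdilution per CLSI M07-A10 with minor changes: 2-fold peptide dilutions plus log-phase bacteria (OD600 ~0.5) diluted to 0.001 OD, in TSB. Incubated overnight at 37 °C; growth read at 630 nm.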
# P. aeruginosa PAO1 = format: cell-based
# Method in brief: as §1
# S. aureus USA300 LAC [2] = assay: Bacterial resistance development, multiple passage experiment; format: cell-based; conditions: 14 passages/days at sub-MIC
# Description: This experiment was performed similar to the MIC determination with a few modifications as described (Mishra, et al. (2019) Proc. Natl. Acad. Sci., 116:13517-13522). In short, an exponential phase S. aureus USA300 culture (i.e., optical density at 600 nm≈0.5) was diluted and partitioned into a 96-well polystyrene microplate with ˜10^5 bacteria per well (90 μL aliquots). After treatment with 10 μL of peptide or nafcillin solutions at various concentrations, microplates were incubated at 37° C. overnight and read on a ChroMate® 4300 Microplate Reader at 630 nm (Awareness Technology, FL). Of the wells with sub-MIC levels of the peptides that retained growth, approximately half of the control wells were again reinoculated in fresh TSB with sub-MIC concertation of peptides or antibiotics to attain exponential phase for MIC determination. Up to 15 serial passages of the bacteria cultures were conducted. The increase in the fold change (MIC on given passage/MIC recorded in first day of passage) was used to determine the degree of drug resistance.
# [3] = system: S. aureus USA300 transposon mutant SAUSA300_1865 (vraR); assay: Antimicrobial susceptibility of transposon mutant; format: cell-based; conditions: mutant SAUSA300_1865 vraR versus WT
# Description: (§2) The antimicrobial susceptibility of over 20 MRSA transposon mutants were also tested, based on a transposon library screening, in the presence of LL-37 peptides (Golla, et al. (2020) ACS Infect. Dis., 6:1866-1881). This Nebraska Transposon Mutant Library of S. aureus USA300 consists of 1920 mutants, each with one nonessential gene disabled due to a transposon insertion (Fey, et al. (2013) mBio 4:e00537-12). The correct insertion of the transposon to each Staph mutant had been verified (Golla, et al. (2020) ACS Infect. Dis., 6:1866-1881). Antimicrobial susceptibility to the new peptide C10-KR8d was evaluated in the same manner as MIC assays. Susceptible strains could be inhibited at a peptide concentration lower than the MIC against the wild strain S. aureus JE2.
# [4] = system: S. aureus USA300 transposon mutant SAUSA300_0646 (graS); assay: Antimicrobial susceptibility of transposon mutant; format: cell-based; conditions: mutant SAUSA300_0646 graS versus WT
# Description: as §2
# [5] = system: S. aureus USA300 transposon mutant SAUSA300_1255 (mprF); assay: Antimicrobial susceptibility of transposon mutant; format: cell-based; conditions: mutant SAUSA300_1255 mprF versus WT
# Description: as §2
# [6] = system: S. aureus USA300 transposon mutant SAUSA300_1089 (lspA); assay: Antimicrobial susceptibility of transposon mutant; format: cell-based; conditions: mutant SAUSA300_1089 lspA versus WT
# Description: as §2
# [7] = system: S. aureus USA300 transposon mutant SAUSA300_0645 (graR); assay: Antimicrobial susceptibility of transposon mutant; format: cell-based; conditions: mutant SAUSA300_0645 graR versus WT
# Description: as §2
# [8] = system: S. aureus USA300 transposon mutant SAUSA300_0988 (trkA); assay: Antimicrobial susceptibility of transposon mutant; format: cell-based; conditions: mutant SAUSA300_0988 trkA versus WT
# Description: as §2
# [9] = system: S. aureus USA300 transposon mutant SAUSA300_1037 (pheS); assay: Antimicrobial susceptibility of transposon mutant; format: cell-based; conditions: mutant SAUSA300_1037 pheS versus WT
# Description: as §2
# S. aureus USA300 LAC [10] = assay: Catheter-associated murine biofilm model; format: in vivo, mice; conditions: single dose 15 mg/kg (250 μg) into and around catheter, day 3
# Description: Peptide potency was evaluated in the catheter model as described (Wang, et al. (2014) ACS Chem. Biol., 9:1997-2002; Heim, et al. (2014) Methods Mol. Biol., 1106:183-191). On the day of infection, mice were anesthetized using ketamine/xylazine (100/10 mg/kg). A small incision was made on the left flank region of the mouse, and using small blunt spatula, a pouch was made for catheter insertion. A sterile catheter with a length of 1 cm was inserted into the pouch aseptically. The wound was sealed using wound closure VetBond™ glue. Bacterial inoculum (20 μL with 10^3 CFU) was injected into the lumen of the catheter. Two hours post infection, the peptide was injected at 15 mg/kg (50 μL at each of the five sites in and around the catheter). Mice were allowed full recovery from anesthesia in an oxygen-enriched chamber. Three days after infection, untreated and treated animal groups were CO2 euthanized and the tissue around the catheter was harvested along with the catheter. A bacterial uninfected catheter group was included as a negative control. All the catheters were sonicated at 37 kHz for 15 minutes to release the bacteria in biofilms, and the tissues were homogenized. […] Degree of significance was represented as *p<0.05**p<0.01, ***p<0.001, and NS means no significance (determined by nonparametric, unpaired, Mann-Whitney test).
SMILES,MIC against clinical strains of S. aureus [1] [µM],MIC (μM) PA (P. aeruginosa PAO1) [µM],MIC increase in multiple passage experiment (S. aureus USA300 LAC [2]),Susceptible? [3],Susceptible? [4],Susceptible? [5],Susceptible? [6],Susceptible? [7],Susceptible? [8],Susceptible? [9],bacterial burden (CFU) on catheter and surrounding tissue (S. aureus USA300 LAC [10])
CCCCCCCCCC(=O)N[C@@H](CCCCN)C(=O)N[C@@H](CCCNC(=N)N)C(=O)N[C@H](C(=O)N[C@@H](Cc1c[nH]c2ccccc12)C(=O)N[C@@H](CCC(N)=O)C(=O)N[C@@H](CCCNC(=N)N)C(=O)N[C@H](C(=O)N[C@@H](CCCCN)C(N)=O)[C@@H](C)CC)[C@@H](C)CC [Peptide C10-KR8] (Decanoyl-KRIWQRIK-NH2),1.6 to 6.2,6.2,,,,,,,,,
CCCCCCCCCC(=O)N[C@H](CCCCN)C(=O)N[C@H](CCCNC(=N)N)C(=O)N[C@@H](C(=O)N[C@H](Cc1c[nH]c2ccccc12)C(=O)N[C@H](CCC(N)=O)C(=O)N[C@H](CCCNC(=N)N)C(=O)N[C@@H](C(=O)N[C@H](CCCCN)C(N)=O)[C@H](C)CC)[C@H](C)CC [Peptide C10-KR8d] (Decanoyl-[dK][dR][dI][dW][dQ][dR][dI][dK]-NH2),,,no changes,Yes,Yes,Yes,Yes,Yes,Yes,Yes,clear decrease in bacterial burden
